US11970494B2, “6-heteroaryloxy benzimidazoles and azabenzimidazoles as JAK2 inhibitors” (Ajax Therapeutics, Inc., priority 2021, dated 2024)

Columns and labels:
[1] = Hepatocyte Stability Assay, human hepatocytes; assay type: in vitro ADME; conditions: cryopreserved hepatocytes, read-out: Human Heps CLint
Procedure: 10 mM stock solutions of test compound and positive control are prepared in DMSO. Stock solutions are diluted to 100 μM by combining 198 μL of 50% acetonitrile/50% water and 2 μL of 10 mM stock solution. Verapamil is used as positive control in the assay. Vials of cryopreserved hepatocytes are thawed in a 37° C. water bath with gently shaking. The contents are poured into the 50 mL thawing medium conical tube. Vials are centrifuged at 100 g for 10 minutes at room temperature. Thawing medium is aspirated and hepatocytes are re-suspended with serum-free incubation medium to yield ˜1.5×10^6 cells/mL. Cell viability and density are counted using a Trypan Blue exclusion, and then cells are diluted with serum-free incubation medium to a working cell density of 0.5×10^6 viable cells/mL. A portion of the hepatocytes at 0.5×10^6 viable cells/mL are boiled for 5 min prior to adding to the plate as negative control to eliminate the enzymatic activity so that little or no substrate turnover should be observed. Aliquots of 198 μL hepatocytes are dispensed into each well of a 96-well non-coated plate. The plate is placed in the incubator for approximately 10 minutes. Aliquots of 2 μL of the 100 μM test compound and 2 μL positive control are added into respective wells of a non-coated 96-well plate to start the reaction. The final concentration of test compound is 1 μM. This assay is performed in duplicate. The plate is incubated in the incubator for the designed time points. 25 μL of contents are transferred and mixed with 6 volumes (150 μL) of cold acetonitrile with internal standard (100 nM alprazolam, 200 nM labetalol, 200 nM caffeine and 200 nM diclofenac) to terminate the reaction at time points of 0, 15, 30, 60, 90 and 120 minutes. Samples are centrifuged for 25 minutes at 3,220 g and aliquots of 150 μL of the supernatants are used for LC-MS/MS analysis.

[2] = target: T1, Tyk2 (Homo sapiens, UniProt P29597); assay: JAK Family Selectivity Assay: Tyk2 vs JAK2 binding affinity; conditions: Kd TYK2 over Kd JAK2
T1 construct: made in house; host or cells: T7 phage in BL21-derived E. coli or HEK-293 cells
Procedure: Provided compounds are evaluated for selectivity by comparing their JAK2 binding affinity (Kd) in the above JAK2 Binding Assay with their binding affinity (Kd) for one or more other kinases. Binding affinity for other kinases is determined as follows: Kinase-tagged T7 phage strains are prepared in an E. coli host derived from the BL21 strain. E. coli are grown to log-phase and infected with T7 phage and incubated with shaking at 32° C. until lysis. The lysates are centrifuged and filtered to remove cell debris. The remaining kinases are produced in HEK-293 cells and subsequently tagged with DNA for qPCR detection. Streptavidin-coated magnetic beads are treated with biotinylated small molecule ligands for 30 minutes at room temperature to generate affinity resins for kinase assays. The liganded beads are blocked with excess biotin and washed with blocking buffer (SeaBlock (Pierce), 1% BSA, 0.05% Tween 20, 1 mM DTT) to remove unbound ligand and to reduce non-specific binding. Binding reactions are assembled by combining kinases, liganded affinity beads, and test compounds in 1× binding buffer (20% SeaBlock, 0.17×PBS, 0.05% Tween 20, 6 mM DTT). Test compounds are prepared as 111× stocks in 100% DMSO. Kds are determined using an 11-point 3-fold compound dilution series with three DMSO control points. All compounds for Kd measurements are distributed by acoustic transfer (non-contact dispensing) in 100% DMSO. The compounds are then diluted directly into the assays such that the final concentration of DMSO is 0.9%. All reactions are performed in polypropylene 384-well plate. Each has a final volume of 0.02 ml. The assay plates are incubated at room temperature with shaking for 1 hour and the affinity beads are washed with wash buffer (1×PBS, 0.05% Tween 20). The beads are then re-suspended in elution buffer (1× PBS, 0.05% Tween 20, 0.5 μM non-biotinylated affinity ligand) and incubated at room temperature with shaking for 30 minutes. The kinase concentration in the eluates is measured by qPCR. […] In some embodiments, provided compounds may be JAK2-selective over one or more of the following kinases: JAK1, JAK3, and Tyk2.

T1 sequence (P29597 whole entry): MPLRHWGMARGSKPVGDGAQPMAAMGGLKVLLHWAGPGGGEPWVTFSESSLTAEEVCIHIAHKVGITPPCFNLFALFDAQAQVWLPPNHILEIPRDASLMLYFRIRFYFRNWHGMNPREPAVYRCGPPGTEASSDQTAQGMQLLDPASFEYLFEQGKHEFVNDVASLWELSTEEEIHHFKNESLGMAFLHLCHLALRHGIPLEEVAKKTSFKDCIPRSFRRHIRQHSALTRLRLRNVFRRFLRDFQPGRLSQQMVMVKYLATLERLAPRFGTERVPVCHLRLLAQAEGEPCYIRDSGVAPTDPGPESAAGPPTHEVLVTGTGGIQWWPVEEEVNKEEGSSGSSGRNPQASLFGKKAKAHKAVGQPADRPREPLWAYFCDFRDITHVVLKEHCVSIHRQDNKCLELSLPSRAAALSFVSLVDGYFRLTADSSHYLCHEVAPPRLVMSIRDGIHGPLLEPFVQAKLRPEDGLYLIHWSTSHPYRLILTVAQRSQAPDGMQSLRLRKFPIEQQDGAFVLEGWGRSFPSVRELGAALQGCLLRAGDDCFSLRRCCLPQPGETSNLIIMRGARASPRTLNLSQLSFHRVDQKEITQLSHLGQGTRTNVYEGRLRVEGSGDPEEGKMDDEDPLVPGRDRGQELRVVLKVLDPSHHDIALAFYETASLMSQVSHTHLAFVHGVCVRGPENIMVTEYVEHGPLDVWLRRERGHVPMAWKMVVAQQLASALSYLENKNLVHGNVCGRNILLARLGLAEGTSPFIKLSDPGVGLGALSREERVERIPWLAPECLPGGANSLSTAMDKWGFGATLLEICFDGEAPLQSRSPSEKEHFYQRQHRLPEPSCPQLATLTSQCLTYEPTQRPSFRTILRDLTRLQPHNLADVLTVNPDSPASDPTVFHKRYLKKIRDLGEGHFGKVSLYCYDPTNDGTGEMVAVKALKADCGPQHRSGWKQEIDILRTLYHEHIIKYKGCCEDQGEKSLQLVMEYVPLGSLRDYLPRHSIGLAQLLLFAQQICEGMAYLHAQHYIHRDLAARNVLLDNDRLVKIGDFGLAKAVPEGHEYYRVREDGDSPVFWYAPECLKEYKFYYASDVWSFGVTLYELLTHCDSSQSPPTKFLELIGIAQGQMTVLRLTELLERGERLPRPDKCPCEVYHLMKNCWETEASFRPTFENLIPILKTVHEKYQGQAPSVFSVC

In the case of `COCC(=O)Nc1cc(Oc2cnc3nc(Nc4cc(C(F)(F)F)cn(C)c4=O)n(C)c3c2C#N)ccn1` [Example I-79, N-(4-((7-cyano-1-methyl-2-((1-methyl-2-oxo-5-(trifluoromethyl)-1,2-dihydropyridin-3-yl)amino)-1H-imidazo[4,5-b]pyridin-6-yl)oxy)pyridin-2-yl)-2-methoxyacetamide], the CLint scaled at 1 μM [1] is reported as 12 to 20 mL/min/kg and the “TYK2/JAK2 Kd/Kd ratio” value [2] is reported as “C (Kd/Kd ratio <300 and ≥100)”.
For `CC(=O)Nc1cc(Oc2cnc3nc(Nc4cc(C(F)(F)F)cn(C)c4=O)n(C)c3c2Cl)c(F)cn1` [Example I-88, N-(4-((7-chloro-1-methyl-2-((1-methyl-2-oxo-5-(trifluoromethyl)-1,2-dihydropyridin-3-yl)amino)-1H-imidazo[4,5-b]pyridin-6-yl)oxy)-5-fluoropyridin-2-yl)acetamide], the CLint scaled at 1 μM [1] was 12 to 20 mL/min/kg and the “TYK2/JAK2 Kd/Kd ratio” value [2] was “D (Kd/Kd ratio <100)”.
In the case of `Cn1c(Nc2cc3n(n2)CCC32CCC2)nc2ncc(Oc3ccnc(NC(=O)C4CC4)c3)c(C#N)c21` [Example I-122, N-(4-((7-cyano-2-((5′,6′-dihydrospiro[cyclobutane-1,4′-pyrrolo[1,2-b]pyrazol]-2′-yl)amino)-1-methyl-1H-imidazo[4,5-b]pyridin-6-yl)oxy)pyridin-2-yl)cyclopropanecarboxamide], the CLint scaled at 1 μM [1] is reported as 12 to 20 mL/min/kg and the “TYK2/JAK2 Kd/Kd ratio” value [2] is reported as “D (Kd/Kd ratio <100)”.
With `CCN1CCN(Cc2ccc(Nc3nc4ccc(Oc5ccnc(NC(C)=O)c5)cc4n3C)cc2C(F)(F)F)CC1` [Example R-1, reference compound] the CLint scaled at 1 μM [1] was 12 to 20 mL/min/kg and the “TYK2/JAK2 Kd/Kd ratio” value [2] was “C (Kd/Kd ratio <300 and ≥100)”.
